In brackets after ≈: the same amount, converted by molar mass. Like-named read-outs stand apart in the source and are kept apart here. *1 amine or outer side, *2 acyl side, *3 side chain or, on linkers, in order; H or OH if unused. Where a SMILES comes first, the peptide text is derived from it. Bridges are numbered along the chain shown (N, C = ends). [ ]: non-standard residue; d: D form. The star is where a group is joined. ξ: configuration not given here. Phe(3R-OH) = O=C([C@@H](N[*:1])[C@H](O[*:3])c1ccccc1)[*:2]; Phe(4-NO2) = N[C@@H](Cc1ccc([N+](=O)[O-])cc1)C(=O)O; Asn(3S-OH) = NC(=O)[C@@H](O)[C@H](N)C(=O)O; Leu(3R-OH) = CC(C)[C@@H](O)[C@H](N)C(=O)O; dAla(TMS) = C[Si](C)(C)C[C@@H](N)C(=O)O; d(tBuAla) = CC(C)(C)C[C@@H](N)C(=O)O; 2Pal = N[C@@H](Cc1ccccn1)C(=O)O; aThr = C[C@H](O)[C@H](N)C(=O)O; Aic = NC1(C(=O)O)Cc2ccccc2C1; ξIle = CC[C@H](C)C(N)C(=O)O; Ac6c = NC1(C(=O)O)CCCCC1; Cbz = O=C(OCc1ccccc1)*; Bn = c1ccc(C*)cc1; tBu = CC(C)(C)*
Experiments:
[1] = test system: E. faecium L4001; assay type: cell-based, Enterococcus faecium; conditions: L4001
[2] = test system: E. faecalis ICB 27159; assay type: cell-based, Enterococcus faecalis; conditions: ICB 27159
Description: (§1) Determination of the Minimum Inhibitory Concentration (MIC):
(§2) The MIC is determined in the liquid dilution test in accordance with the NCCLS guidelines. Overnight cultures of Staphylococcus aureus 133, Enterococcus faecalis 27159, E. faecium 4147 and Streptococcus pneumoniae G9a are incubated with the desired test substances in a 1:2 dilution series. The MIC determination is carried out with a cell count of 10^5 microbes per ml in Isosensitest medium (Difco, Irvine/USA), with the exception of S. pneumoniae which is tested in BHI broth (Difco, Irvine/USA) with 10% bovine serum with a cell count of 10^6 microbes per ml. The cultures are incubated at 37° C. for 18-24 hours, S. pneumoniae in the presence of 10% CO2.
(§3) The MIC is defined as the lowest concentration of each substance at which visible bacterial growth no longer occurs. The MIC values are reported in μg/ml.

[3] = test system: Streptococcus pneumoniae G9a; assay type: cell-based
Description: as §1, §2, §3

[4] = test system: Staphylococcus aureus 133; assay type: cell-based; conditions: 133
Description: as §1, §2, §3

Structure (SMILES)	MIC E. faecium L4001 [1] [µg/mL]	MIC E. faecalis ICB 27159 [2] [µg/mL]	MIC S. pneumoniae ([3]; G9a) [µg/mL]	MIC S. aureus 133 [4] [µg/mL]	MIC S. pneumoniae ([3]; BHI broth with 10% bovine serum, 10^6 microbes per ml, 10% CO2, 37° C., 18-24 hours)
CC[C@H](C)[C@@H]1NC(=O)[C@@H](CCCNC(=N)N)NC(=O)[C@H](CC(C)C)NC(=O)[C@H]([C@H](O)C(C)C)NC(=O)[C@@H](NC(=O)[C@H](CC(C)C)NC(=O)C2(N)Cc3ccccc3C2)[C@@H](c2ccccc2)OC(=O)[C@H](CO)NC(=O)[C@H]([C@H](O)C(N)=O)NC(=O)CNC(=O)[C@H]([C@H](C)O)NC1=O [Example 18, (2-Amino-2,3-dihydro-1H-indenylcarbonyl)-de(1-D-leucyl)lysobactin bistrifluoroacetate] (H-[Aic]L[Phe(3R-OH)][Leu(3R-OH)]L[dR]I[aThr]G[Asn(3S-OH)]S; ester 3-C)	1 (≈ 0.756 µM)	1 (≈ 0.756 µM)	2 (≈ 1.51 µM)	1 (≈ 0.756 µM)	–
CC[C@H](C)[C@@H]1NC(=O)[C@@H](CCCNC(=N)N)NC(=O)[C@H](CC(C)C)NC(=O)[C@H]([C@H](O)C(C)C)NC(=O)[C@@H](NC(=O)[C@H](Cc2ccccn2)NC(=O)[C@H](N)CC(C)(C)C)[C@@H](c2ccccc2)OC(=O)[C@H](CO)NC(=O)[C@H]([C@H](O)C(N)=O)NC(=O)CNC(=O)[C@H]([C@H](C)O)NC1=O [Example 97, 3-tert-Butyl-D-alanyl-3-(2-pyridyl)-L-alanyl-de(1-D-leucyl-2-L-leucyl)lysobactin tristrifluoroacetate] (H-[d(tBuAla)][2Pal][Phe(3R-OH)][Leu(3R-OH)]L[dR]I[aThr]G[Asn(3S-OH)]S; ester 3-C)	1 (≈ 0.754 µM)	0.5 (≈ 0.377 µM)	0.125 (≈ 0.0943 µM)	1 (≈ 0.754 µM)	–
CC[C@H](C)[C@@H]1NC(=O)[C@@H](CCCNC(=N)N)NC(=O)[C@H](CC(C)C)NC(=O)[C@H]([C@H](O)C(C)C)NC(=O)[C@@H](NC(=O)[C@H](CC(C)C)NC(=O)C2(N)CCCCC2)[C@@H](c2ccccc2)OC(=O)[C@H](CO)NC(=O)[C@H]([C@H](O)C(N)=O)NC(=O)CNC(=O)[C@H]([C@H](C)O)NC1=O [Example 57, N-(1-Aminocyclohexyl)carbonyl-de(1-D-leucyl)lysobactin bistrifluoroacetate] (H-[Ac6c]L[Phe(3R-OH)][Leu(3R-OH)]L[dR]I[aThr]G[Asn(3S-OH)]S; ester 3-C)	1 (≈ 0.776 µM)	1 (≈ 0.776 µM)	0.25 (≈ 0.194 µM)	0.5 (≈ 0.388 µM)	–
CC[C@H](C)[C@@H]1NC(=O)[C@@H](CCCNC(=N)N)NC(=O)[C@H](CC(C)C)NC(=O)[C@H]([C@H](O)C(C)C)NC(=O)[C@@H](NC(=O)[C@H](CC(C)C)NC(=O)[C@H](N)CC(C)C)[C@@H](c2ccccc2)OC(=O)[C@H](CO)NC(=O)[C@H]([C@H](O)C(N)=O)NC(=O)CNC(=O)[C@H]([C@H](C)O)NC1=O.O=C(O)C(F)(F)F.O=C(O)C(F)(F)F [Example 1A, D-Leucyl-N^1-{(3S,6S,12S,15S,18R,21S,24S,27S,28R)-6-[(1S)-2-amino-1-hydroxy-2-oxoethyl]-18-(3-{[amino(imino)methyl]amino}propyl)-12-[(1S)-1-hydroxyethyl]-3-(hydroxymethyl)-24-[(1R)-1-hydroxy-2-methylpropyl]-21-isobutyl-15-[(1S)-1-methylpropyl]-2,5,8,11,14,17,20,23,26-nonaoxo-28-phenyl-1-oxa-4,7,10,13,16,19,22,25-octaazacyclooctacosan-27-yl}-L-leucinamide bistrifluoro-acetate, reference compound] (H-[dL]L[Phe(3R-OH)][Leu(3R-OH)]L[dR]I[aThr]G[Asn(3S-OH)]S; ester 3-C)	0.5	1	0.063	0.25	–
CC[C@H](C)C1NC(=O)[C@@H](CCCNC(=N)N)NC(=O)[C@H](CC(C)C)NC(=O)[C@H]([C@H](O)C(C)C)NC(=O)[C@@H](NC(=O)[C@H](COCc2ccccc2)NC(=O)[C@H](N)CC(C)(C)C)[C@@H](c2ccccc2)OC(=O)[C@H](CO)NC(=O)[C@H]([C@H](O)C(N)=O)NC(=O)CNC(=O)[C@H]([C@H](C)O)NC1=O.O=C(O)C(F)(F)F.O=C(O)C(F)(F)F (stereo partly drawn) [Example 99, (3-tert-Butyl-D-alanyl-O-benzyl-L-seryl)-de(1-D-leucyl-2-L-leucyl)lysobactin bistrifluoroacetate] (H-[d(tBuAla)]S(Bn)[Phe(3R-OH)][Leu(3R-OH)]L[dR][ξIle][aThr]G[Asn(3S-OH)]S; ester 3-C)	0.063	0.063	–	0.25	≦0.063 μg/ml
CC[C@H](C)[C@@H]1NC(=O)[C@@H](CCCNC(=N)N)NC(=O)[C@H](CC(C)C)NC(=O)[C@H]([C@H](O)C(C)C)NC(=O)[C@@H](NC(=O)[C@H](CC(C)C)NC(=O)[C@H](N)COC(C)(C)C)[C@@H](c2ccccc2)OC(=O)[C@H](CO)NC(=O)[C@H]([C@H](O)C(N)=O)NC(=O)CNC(=O)[C@H]([C@H](C)O)NC1=O [Example 47, [O-(tert-Butyl)-D-seryl]-de(1-D-leucyl)lysobactin bistrifluoroacetate] (H-[dS](tBu)L[Phe(3R-OH)][Leu(3R-OH)]L[dR]I[aThr]G[Asn(3S-OH)]S; ester 3-C)	1 (≈ 0.765 µM)	2 (≈ 1.53 µM)	0.25 (≈ 0.191 µM)	0.25 (≈ 0.191 µM)	–
CC[C@H](C)[C@@H]1NC(=O)[C@@H](CCCNC(=N)N)NC(=O)[C@H](CC(C)C)NC(=O)[C@H]([C@H](O)C(C)C)NC(=O)[C@@H](NC(=O)[C@H](Cc2ccc([N+](=O)[O-])cc2)NC(=O)[C@H](N)Cc2ccccc2)[C@@H](c2ccccc2)OC(=O)[C@H](CO)NC(=O)[C@H]([C@H](O)C(N)=O)NC(=O)CNC(=O)[C@H]([C@H](C)O)NC1=O.O=C(O)C(F)(F)F.O=C(O)C(F)(F)F [Example 81, D-Phenylalanyl-4-nitro-L-phenylalanyl-de(1-D-leucyl-2-L-leucyl)lysobactine bistrifluoroacetate] (H-[dF][Phe(4-NO2)][Phe(3R-OH)][Leu(3R-OH)]L[dR]I[aThr]G[Asn(3S-OH)]S; ester 3-C)	0.25	0.25	0.25	0.5	–
CC[C@H](C)[C@@H]1NC(=O)[C@@H](CCCNC(=N)N)NC(=O)[C@H](CC(C)C)NC(=O)[C@H]([C@H](O)C(C)C)NC(=O)[C@@H](NC(=O)[C@H](Cc2ccccc2)NC(=O)[C@H](N)Cc2ccccc2)[C@@H](c2ccccc2)OC(=O)[C@H](CO)NC(=O)[C@H]([C@H](O)C(N)=O)NC(=O)CNC(=O)[C@H]([C@H](C)O)NC1=O.O=C(O)C(F)(F)F.O=C(O)C(F)(F)F [Example 82, D-Phenylalanyl-L-phenylalanyl-de(1-D-leucyl-2-L-leucyl)lysobactine bistrifluoroacetate] (H-[dF]F[Phe(3R-OH)][Leu(3R-OH)]L[dR]I[aThr]G[Asn(3S-OH)]S; ester 3-C)	0.5	1	0.125	0.125	–
CC[C@H](C)C1NC(=O)[C@@H](CCCNC(=N)N)NC(=O)[C@H](CC(C)C)NC(=O)[C@H]([C@H](O)C(C)C)NC(=O)[C@@H](NC(=O)[C@H](CCCCNC(=O)OCc2ccccc2)NC(=O)[C@H](N)CC(C)(C)C)[C@@H](c2ccccc2)OC(=O)[C@H](CO)NC(=O)[C@H]([C@H](O)C(N)=O)NC(=O)CNC(=O)[C@H]([C@H](C)O)NC1=O.O=C(O)C(F)(F)F.O=C(O)C(F)(F)F (stereo partly drawn) [Example 107, {(3-tert-Butylalanyl)-[N^6-(benzyloxycarbonyl)lysyl]}-de(1-D-leucyl-2-L-leucyl)lysobactin bistrifluoroacetate] (H-[d(tBuAla)]K(Cbz)[Phe(3R-OH)][Leu(3R-OH)]L[dR][ξIle][aThr]G[Asn(3S-OH)]S; ester 3-C)	0.5	1	0.25	0.25	–
CC[C@H](C)[C@@H]1NC(=O)[C@@H](CCCNC(=N)N)NC(=O)[C@H](CC(C)C)NC(=O)[C@H]([C@H](O)C(C)C)NC(=O)[C@@H](NC(=O)[C@H](CC(C)C)NC(=O)[C@H](N)C[Si](C)(C)C)[C@@H](c2ccccc2)OC(=O)[C@H](CO)NC(=O)[C@H]([C@H](O)C(N)=O)NC(=O)CNC(=O)[C@H]([C@H](C)O)NC1=O [Example 59, 3-(Trimethylsilyl-D-alanyl-de(1-D-leucyl)lysobactin bistrifluoroacetate] (H-[dAla(TMS)]L[Phe(3R-OH)][Leu(3R-OH)]L[dR]I[aThr]G[Asn(3S-OH)]S; ester 3-C)	0.25 (≈ 0.191 µM)	0.25 (≈ 0.191 µM)	<0.063	0.125 (≈ 0.0957 µM)	–
CC[C@H](C)[C@@H]1NC(=O)[C@@H](CCCNC(=N)N)NC(=O)[C@H](CC(C)C)NC(=O)[C@H]([C@H](O)C(C)C)NC(=O)[C@@H](NC(=O)[C@H](CC(C)C)NC(=O)[C@@H](N)Cc2ccccc2)[C@@H](c2ccccc2)OC(=O)[C@H](CO)NC(=O)[C@H]([C@H](O)C(N)=O)NC(=O)CNC(=O)[C@H]([C@H](C)O)NC1=O [Example 48, L-Phenylalanyl-de(1-D-leucyl)lysobactin bistrifluoroacetate] (H-FL[Phe(3R-OH)][Leu(3R-OH)]L[dR]I[aThr]G[Asn(3S-OH)]S; ester 3-C)	0.25 (≈ 0.191 µM)	0.5 (≈ 0.382 µM)	0.125 (≈ 0.0954 µM)	0.125 (≈ 0.0954 µM)	–

— US7368424B2, “Acylated nonadepsipeptides” (AiCuris GmbH & Co. KG, priority 2003, dated 2008)
